In US20240140931A1, “TRICYCLIC COMPOUNDS AND USES THEREOF” (HUTCHMED LIMITED, priority 2021, published 2024):

Key:
[1] = biological target: Human full-length SHP2 recombinant protein (Homo sapiens (Human), UniProt Q06124); experiment: Assay of full-length SHP2 phosphatase activity; assay type: biochemical; settings: DiFMUP substrate, with activating peptide
How it was run: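 Readout: DiFMUP hydrolysis fluorescence (355/460 nm) after 60 min at 25 °C, following 30 min RT preincubation of compound with peptide-activated full-length human SHP2. Controls were 1% DMSO with or without enzyme; IC50 by four-parameter logistic fit.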

[2] = test system: pERK1/2 (Thr202/Tyr204) in Miapaca2 cells; experiment: Assay of intracellular pERK1/2 (Thr202/Tyr204) phosphorylation; assay type: cell-based; settings: pERK1/2 (Thr202/Tyr204) HTRF
How it was run: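 HTRF read-out (665/615 nm) of phospho-ERK1/2 Thr202/Tyr204 in lysates from Miapaca2 cells exposed for 2 h to 3-fold compound dilutions at 0.5% final DMSO. Controls: lysis buffer without cells and DMSO-treated cells; IC50 from four-parameter logistic fit.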

IC50 [1] [nM] | IC50 ([2]; Homo sapiens, MIA PaCa-2, 2 h) [nM] | IC50 ([2]; 2 hours) [nM] | SMILES
130 | 510 | – | C#Cc1ccc2c(c1)[C@@H](N)C1(CCN(c3cc(=O)n(-c4c(F)cccc4Cl)c(C)n3)CC1)C2 [Compound 68]
5 | – | 66 | C#Cc1ccc2c(c1)[C@@H](N)C1(CCN(c3cc(=O)n(-c4ccc(F)c(Cl)c4Cl)c(C)n3)CC1)C2 [Compound 69]
2 | 141 | – | Cc1nc(N2CCC3(CC2)Cc2ccc(C#CCN(C)C)cc2[C@H]3N)cc(=O)n1-c1ccc(F)c(Cl)c1Cl [Compound 70]
1 | 22 | – | CN(C)CC#Cc1ccc2c(c1)[C@@H](N)C1(CCN(c3ncc(Sc4ccnc(N)c4Cl)c4nccn34)CC1)C2 [Compound 71]
978 | > 1000 | – | CN(C)CC#Cc1ccc2c(c1)C(=O)C1(CCN(c3ncc(Sc4ccnc(N)c4Cl)c4nccn34)CC1)C2 [Compound 72]
253 | > 1000 | – | C#Cc1ccc2c(c1)[C@@H](N)C1(CCN(c3cc(=O)n(-c4cc(Cl)ccc4Cl)c(C)n3)CC1)C2 [Compound 73]
4 | 223 | – | Cc1nc(N2CCC3(CC2)Cc2ccc(C#CCN(C)C)cc2[C@H]3N)cc(=O)n1-c1cccc(F)c1Cl [Compound 74]
2 | 46 | – | Cc1nc(N2CCC3(CC2)Cc2ccc(C#CCN(C)C)cc2[C@H]3N)n2ccnc2c1Sc1ccnc(N)c1Cl [Compound 75]
2 | 4 | – | Nc1nccc(Sc2cnc(N3CCC4(CC3)Cc3ccc(C#CCO)cc3[C@H]4N)n3ccnc23)c1Cl [Compound 76]
3 | – | 43 | C#Cc1ccc2c(c1)[C@@H](N)C1(CCN(c3cc(=O)n(-c4ccc(F)c(OC)c4F)c(C)n3)CC1)C2 [Compound 78]
1 | 60 | – | CC#Cc1ccc2c(c1)[C@@H](N)C1(CCN(c3cc(=O)n(-c4cccc(Cl)c4Cl)c(C)n3)CC1)C2 [Compound 79]
4 | 125 | – | C#Cc1cccc2c1CC1(CCN(c3cc(=O)n(-c4cccc(Cl)c4Cl)c(C)n3)CC1)[C@@H]2N [Compound 80]
2 | 43 | – | COCC#Cc1ccc2c(c1)[C@@H](N)C1(CCN(c3cc(=O)n(-c4ccc(F)c(OC)c4F)c(C)n3)CC1)C2 [Compound 82]
1 | 57 | – | COc1c(F)ccc(-n2c(C)nc(N3CCC4(CC3)Cc3ccc(C#CCN(C)C)cc3[C@H]4N)cc2=O)c1F [Compound 83]
67 | > 1000 | – | Cc1nc(N2CCC3(CC2)Cc2ccc(C#CCN(C)C)cc2[C@H]3N)cc(=O)n1-c1cc(Cl)ccc1Cl [Compound 84]
50 | 785 | – | Cc1nc(N2CCC3(CC2)Cc2ccc(C#CCO)cc2[C@H]3N)cc(=O)n1-c1cc(Cl)ccc1Cl [Compound 85]
2 | 6 | – | COCC#Cc1ccc2c(c1)[C@@H](N)C1(CCN(c3cnc(Sc4ccnc(N)c4Cl)c(N)n3)CC1)C2 [Compound 86]
1 | 2 | – | COCC#Cc1ccc2c(c1)[C@@H](N)C1(CCN(c3ncc(Sc4ccnc(N)n4)nc3CO)CC1)C2 [Compound 87, (S)-(3-(1-amino-6-(3-methoxyprop-1-yn-1-yl)-1,3-dihydrospiro[indene-2,4′-piperidin]-1′-yl)-6-((2-aminopyrimidin-4-yl)thio)pyrazin-2-yl)methanol]
1.1 | – | 53 | C#Cc1ccc2c(c1)[C@@H](N)C1(CCN(c3cc(=O)n(-c4cccc(OC)c4Cl)c(C)n3)CC1)C2 [Compound 90]
0.7 | 17 | – | CNCC#Cc1ccc2c(c1)[C@@H](N)C1(CCN(c3ncc(Sc4ccnc(N)c4Cl)c4nccn34)CC1)C2 [Compound 91]
11 | 117 | – | C#Cc1ccc2c(c1)[C@@H](N)C1(CCN(c3nc(C)n(-c4ccc(OCC)cc4Cl)c(=O)c3C)CC1)C2 [Compound 92]
16 | 301 | – | COCC#Cc1ccc2c(c1)[C@@H](N)C1(CCN(c3cc(=O)n(-c4ccc(C#N)cc4Cl)c(C)n3)CC1)C2 [Compound 93]
7 | 155 | – | C#Cc1ccc2c(c1)[C@@H](N)C1(CCN(c3cc(=O)n(-c4ccc(C#N)cc4Cl)c(C)n3)CC1)C2 [Compound 94]
3 | 2 | – | C#Cc1ccc2c(c1)[C@@H](N)C1(CCN(c3cnc(Sc4ccnc(N)c4Cl)c(N)n3)CC1)C2 [Compound 95]
5 | 55 | – | COCC#Cc1cccc2c1CC1(CCN(c3cc(=O)n(-c4cccc(Cl)c4Cl)c(C)n3)CC1)[C@@H]2N [Compound 96]
2 | 11 | – | COCC#Cc1cccc2c1CC1(CCN(c3ncc(Sc4ccnc(N)c4Cl)c4nccn34)CC1)[C@@H]2N [Compound 97]
3 | 20 | – | COCCSc1ccc2c(c1)[C@@H](N)C1(CCN(c3ncc(Sc4ccnc(N)n4)c4nccn34)CC1)C2 [Compound 98]

IC50 [1] [nM] | IC50 ([2]; Homo sapiens, MIA PaCa-2, 2 h) [nM] | IC50 ([2]; 2 hours) [nM] | SMILES
2 | 40 | – | COCCSc1ccc2c(c1)[C@@H](N)C1(CCN(c3cc(=O)n(-c4cccc(Cl)c4Cl)c(C)n3)CC1)C2 [Compound 99]
2 | 12 | – | COCC#Cc1ccc2c(c1)[C@@H](N)C1(CCN(c3ncc(Sc4ccnc(N)n4)c4nccn34)CC1)C2 [Compound 100]
12 | 96 | – | COCCSc1ccc2c(c1)[C@@H](N)C1(CCN(c3cc(=O)n(-c4ccc(F)c(OC)c4F)c(C)n3)CC1)C2 [Compound 101]
4 | 40 | – | COCC#Cc1ccc2c(c1)[C@@H](N)C1(CCN(c3cc(=O)n(-c4cccc(OC)c4Cl)c(C)n3)CC1)C2 [Compound 104]
9 | – | 84 | C#Cc1ccc2c(c1)[C@@H](N)C1(CCN(c3cc(=O)n(-c4cccc(C(F)(F)F)c4Cl)c(C)n3)CC1)C2 [Compound 106]
739 | > 1000 | – | C#Cc1ccc2c(c1)[C@@H](N)C1(CCN(c3cc(=O)n(-c4ccccc4C(F)(F)F)c(C)n3)CC1)C2 [Compound 107]
2 | 6 | – | COCC#Cc1ccc2c(c1)[C@@H](N)C1(CCN(c3cnc(Sc4ccnc(N)n4)c(N)n3)CC1)C2 [Compound 112]
2 | 26 | – | CCOCC#Cc1ccc2c(c1)[C@@H](N)C1(CCN(c3cc(=O)n(-c4cccc(Cl)c4Cl)c(C)n3)CC1)C2 [Compound 115]
0.5 | 1 | – | C#Cc1ccc2c(c1)[C@@H](N)C1(CCN(c3ncc(Sc4ccnc(N)n4)nc3CO)CC1)C2 [Compound 116]
2 | 24 | – | COCC#Cc1ccc2c(c1)[C@@H](N)C1(CCN(c3nc(C)c(Sc4ccnc(N)n4)c4nccn34)CC1)C2 [Compound 117]
45 | 385 | – | COCC#Cc1ccc2c(c1)[C@@H](N)C1(CCN(c3ncc(-c4cn(C)c5ncccc45)c4nccn34)CC1)C2 [Compound 120]
> 1000 | > 1000 | – | C#Cc1ccc2c(c1)[C@@H](N)C1(CCN(c3cc(=O)n(-c4cccc(Cl)c4Cl)c(C(F)(F)F)n3)CC1)C2 [Compound 121]
0.6 | 7 | – | NC(=O)C#Cc1ccc2c(c1)[C@@H](N)C1(CCN(c3ncc(Sc4ccnc(N)n4)nc3CO)CC1)C2 [Compound 122]
0.6 | 4 | – | NC(=O)C#Cc1ccc2c(c1)[C@@H](N)C1(CCN(c3ncc(Sc4ccnc(N)c4Cl)nc3CO)CC1)C2 [Compound 123]
2 | 42 | – | C#Cc1ccc2c(c1)[C@@H](N)C1(CCN(c3cnc(Sc4ccnc(N)n4)c(N)n3)CC1)C2 [Compound 126]
0.6 | 13 | – | Cc1nc(N2CCC3(CC2)Cc2ccc(C#CC(N)=O)cc2[C@H]3N)cc(=O)n1-c1cccc(Cl)c1Cl [Compound 127]
0.9 | 15 | – | NC(=O)C#Cc1ccc2c(c1)[C@@H](N)C1(CCN(c3ncc(Sc4ccnc(N)c4Cl)c4nccn34)CC1)C2 [Compound 128]
0.6 | 3 | – | NC(=O)C#Cc1ccc2c(c1)[C@@H](N)C1(CCN(c3cnc(Sc4ccnc(N)c4Cl)c(N)n3)CC1)C2 [Compound 129]
3 | 4 | – | CC#Cc1ccc2c(c1)[C@@H](N)C1(CCN(c3cnc(Sc4ccnc(N)c4Cl)c(N)n3)CC1)C2 [Compound 131]
3 | 9 | – | COCC#Cc1ccc2c(c1)[C@@H](N)C1(CCN(c3ncc(Sc4ccnc(C)n4)c4nccn34)CC1)C2 [Compound 132]
29 | 147 | – | C#Cc1ccc2c(c1)[C@@H](N)C1(CCN(c3cc(=O)n(-c4ccccc4SC)c(C)n3)CC1)C2 [Compound 133]
1.4 | 5 | – | CC#Cc1ccc2c(c1)[C@@H](N)C1(CCN(c3cnc(Sc4ccnc(N)n4)c(N)n3)CC1)C2 [Compound 134]
25 | 124 | – | C#Cc1cc(F)c2c(c1)[C@@H](N)C1(CCN(c3nc(C)n(-c4cccc(Cl)c4Cl)c(=O)c3F)CC1)C2 [Compound 167]
6 | 125 | – | COCC#Cc1ccc2c(c1)[C@@H](N)C1(CCN(c3nc(C)n(-c4cccc(Cl)c4Cl)c(=O)c3F)CC1)C2 [Compound 169]
13 | 251 | – | C#Cc1ccc2c(c1)[C@@H](N)C1(CCN(c3nc(C)c(Sc4ccnc(N)c4Cl)n4cncc34)CC1)C2 [Compound 180]
14 | > 1000 | – | C#Cc1ccc2c(c1)[C@@H](N)C1(CCN(c3cc(=O)n(-c4ccc(C#N)c(O)c4F)c(C)n3)CC1)C2 [Compound 185]
